Experimental data published in patent US20030186289A1, “Model cell systems for screening of anti-hypertrophic therapeutics” (Myogen, Inc., priority 2002, published 2003).

Experiments:
Format in all cases: cell-based, rat
[1] = system: hypertrophic promoter activity (ANF, NFAT, MEF2, aSkAct, Myb); experiment: hypertrophic promoter-luciferase constructs in H9C2 cells, agonist dose-response survey; settings: dose-response survey of agonists
Procedure: FIG. 5—H9C2 promoter activity is unresponsive to the adrenergic agonists isoproterenol, norepinephrine and forskolin. H9 cells were transfected with promoter-luciferase contructs as shown and as described in materials and methods. Transfected cells were treated with hypertrophic agonists as shown. Luciferase units were measured and plotted as fraction of untreated control vs concentration of agonist used. Symbols ANF, NFAT, MEF2, aSkAct, and Myb are used as in FIG. 3.
Plasmid constructs used. Gal4 DNA-binding domain constructs were generated by cloning cDNAs encoding constitutively active murine calcineurin (residues 1-398) and full length human MEF-2 into the pBIND expression vector (Promega, Inc.). VP16 fusion constructs were created by cloning full length human MCIP1 and HDAC5 cDNAs into the pACT expression vector (Promega, Inc.). […] Promoter reporter constructs were generated by cloning the promoter regions of ANF, α-skeletal actin, IL-2 (with multiple NFAT binding sites) and myoglobin genes upstream of a promoter-less firefly luciferase open reading frame (pGL3 plasmid, Promega, Inc.). […]
Luciferase measurement. […] Briefly, cells were washed in serum- and phenol red-free medium, then lysed in the presence of luciferase substrate to produce a long half-life “glow” luminescence. Relative light intensity was quantitated on a Fusion Universal Microplate Analyzer (Packard).

[2] = system: alpha skeletal actin promoter; experiment: alpha skeletal actin promoter-luciferase reporter in H9C2 cells
[3] = system: MEF-2 reporter; experiment: 3×MEF2 promoter-luciferase reporter in H9C2 cells; settings: for MEF-2 reporter expression: agonist 100 μM
From the text: Plasmid constructs used. Gal4 DNA-binding domain constructs were generated by cloning cDNAs encoding constitutively active murine calcineurin (residues 1-398) and full length human MEF-2 into the pBIND expression vector (Promega, Inc.). VP16 fusion constructs were created by cloning full length human MCIP1 and HDAC5 cDNAs into the pACT expression vector (Promega, Inc.). In assays, Gal4 and VP16 fusion constructs were cotransfected with pG5-luc reporter (Promega), a firefly luciferase gene under control of a multimerized Gal4 promoter sequence. Promoter reporter constructs were generated by cloning the promoter regions of ANF, α-skeletal actin, IL-2 (with multiple NFAT binding sites) and myoglobin genes upstream of a promoter-less firefly luciferase open reading frame (pGL3 plasmid, Promega, Inc.). Similarly, three consensus MEF-2 binding sites or a single TATA element were cloned into pGL3. HDAC5-GFP construct was a gift from E. Olson, UT Southwestern Medical Center, Dallas Tex.
Cells culture and transient transfections. All muscle cell lines were obtained from the American Type Culture Collection (ATCC). Cells were cultured under conditions recommended by ATCC. Transient transfections were carried out in 96-well plates (5000 cells/well) using the Fugene transfection reagent (Roche), as per manufacturer's instructions. […] Forty-eight hours post-transfection, cells were processed for luciferase measurements.
Adenoviral constructs. Recombinant adenovirus α-skeletal actin-luc, and 3×MEF2-luc were constructed using the Adeasy vector system (Qbiogene) according to manufacturers instructions. Recombinant adenovirus HDAC5 and HDAC5-S259/498A were provided by E. Olson. Recombinant adenovirus MCIPexon4 was provided by S. Williams. Recombinant adenovirus β-galactosidase was from Qbiogene. Cells were plated in 96-well plates, and 24 hr after plating, were infected with recombinant adenovirus at moi of 50 in serum free media for three hrs. Forty-eight hrs after infection, the cells were lysed and luciferase levels were measured as above.
Luciferase measurement. Transiently transfected or adenovirus transfected cells were processed for luciferase activity using the Luc-Lite assay kit (Packard), as per manufacturer's instructions. Briefly, cells were washed in serum- and phenol red-free medium, then lysed in the presence of luciferase substrate to produce a long half-life “glow” luminescence. Relative light intensity was quantitated on a Fusion Universal Microplate Analyzer (Packard).

[4] = recombinant adenovirus infection, moi of 50
[5] = drug added at transfection or expression construct, 48 h

Molecule	hypertrophic promoter activity [1]	MEF-2 reporter expression [3]	other results
NC[C@H](O)c1ccc(O)c(O)c1 [norepinephrine]	relatively unaffected		
HDAC5-S259/498A: mutant of HDAC5 where serine residues 259 and 498 are replaced by alanine; super-repressor of the MEF-2 pathway			repression of the alpha-skeletal-actin promoter [2, 4]: most effective repressor; repression of the 3×MEF2 promoter [3, 4]: most effective repressor
CNC[C@H](O)c1cccc(O)c1 [phenylephrine]		unaffected	
CC(C)NCC(O)c1ccc(O)c(O)c1 (centres unmarked) [isoproterenol]	relatively unaffected		
HDAC: anti-hypertrophic gene product HDAC5, MEF-2 inhibitor, expressed by transfection or adenovirus			expression of alpha skeletal actin reporter [2, 5]: significantly reduced; expression of MEF-2 reporter [3, 5]: significantly reduced
CC[C@H](C)[C@H](NC(=O)[C@H](CC(=O)O)NC(=O)[C@H](CC(C)C)NC(=O)[C@H](Cc1c[nH]cn1)NC(=O)[C@@H]1CSSC[C@H](N)C(=O)N[C@@H](CO)C(=O)N[C@H]2CSSC[C@H](NC(=O)[C@H](CCC(=O)O)NC(=O)[C@H](CCCCN)NC(=O)[C@H](CC(=O)O)NC(=O)[C@H](CCSC)NC(=O)[C@H](CC(C)C)NC(=O)[C@H](CO)NC(=O)[C@H](CO)NC2=O)C(=O)N[C@@H](C(C)C)C(=O)N[C@@H](Cc2ccc(O)cc2)C(=O)N[C@@H](Cc2ccccc2)C(=O)N1)C(=O)N[C@H](C(=O)N[C@@H](Cc1c[nH]c2ccccc12)C(=O)O)[C@@H](C)CC [endothelin]		unaffected	
